Assay results: US11845759B2, “Opioid compounds and uses thereof” (priority 2018, dated 2023)

What was measured:
[1] = Hydrolysis in simulated intestinal fluid at 37° C.; details: for 6,14-bis-PEG-Oxy (%): 6,14-bis-PEG-Oxycodone (86%, 14% mono-PEG) in simulated Intestinal fluid (pH=6.8), 37° C.; for 6-lauroyl-Oxy (%): 6-lauroyl-Oxycodone, simulated intestinal fluid with 0.5% Polysorbate 80, 37° C.
[2] = Hydrolysis in human blood serum at 37° C.; details: for 6,14-bis-PEG-Oxy (%): 6,14-bis-PEG-Oxycodone (86%, 14% mono-PEG) in human serum, 37° C.
μ-opioid receptor [3] = target: T1, μ-opioid receptor (Homo sapiens (Human), UniProt P35372); assay: [35S]GTPγS μ-opioid receptor functional assay; assay type: biochemical; details: for functional profile at μ-opioid receptor (in words): conclusion from Table 23
μ-opioid receptor [4] = target: T1, μ-opioid receptor; assay type: binding
[5] = Hydrolysis in simulated gastric fluid at 37° C.; details: 6,14-bis-PEG-Oxycodone (86%, 14% mono-PEG) in simulated gastric fluid (pH=1.2)
[6] = Hydrolysis in pH buffer/EtOH solutions; assay type: physicochemical
[7] = Hydrolysis in HCl solutions; assay type: physicochemical; details: 6,14-bis-lauroyl-Oxycodone, 1.0N HCl (75% EtOH)
[8] = 6,14-bis-lauroyl-Oxycodone, pH 7 buffer (75% EtOH), 0 h
[9] = 6,14-bis-lauroyl-Oxycodone, pH 7 buffer (75% EtOH), 0.5 h
[10] = 6,14-bis-lauroyl-Oxycodone, pH 7 buffer (75% EtOH), 2 h
[11] = 6,14-bis-lauroyl-Oxycodone, pH 7 buffer (75% EtOH), 4 h
[12] = 6,14-bis-lauroyl-Oxycodone, pH 7 buffer (75% EtOH), 8 h
[13] = 6,14-bis-lauroyl-Oxycodone, pH 7 buffer (75% EtOH), 24 h
[14] = 6,14-bis-lauroyl-Oxycodone, pH 9 buffer (75% EtOH), 0 h
[15] = 6,14-bis-lauroyl-Oxycodone, pH 9 buffer (75% EtOH), 0.5 h
[16] = 6,14-bis-lauroyl-Oxycodone, pH 9 buffer (75% EtOH), 2 h
[17] = 6,14-bis-lauroyl-Oxycodone, pH 9 buffer (75% EtOH), 8.5 h
[18] = 6,14-bis-lauroyl-Oxycodone, pH 9 buffer (75% EtOH), 22.5 h
[19] = 6,14-bis-lauroyl-Oxycodone, pH 11 buffer (75% EtOH), 0 h
[20] = 6,14-bis-lauroyl-Oxycodone, pH 11 buffer (75% EtOH), 0.17 h
[21] = 6,14-bis-lauroyl-Oxycodone, pH 11 buffer (75% EtOH), 0.5 h
[22] = 6,14-bis-lauroyl-Oxycodone, pH 11 buffer (75% EtOH), 2 h
[23] = 6,14-bis-lauroyl-Oxycodone, pH 11 buffer (75% EtOH), 8.5 h
[24] = 6,14-bis-lauroyl-Oxycodone, pH 11 buffer (75% EtOH), 22.5 h
[25] = 6-lauroyl-Oxycodone, pH 9 buffer (75% EtOH), 0 h
[26] = 6-lauroyl-Oxycodone, pH 9 buffer (75% EtOH), 0.5 h
[27] = 6-lauroyl-Oxycodone, pH 9 buffer (75% EtOH), 2 h
[28] = 6-lauroyl-Oxycodone, pH 9 buffer (75% EtOH), 4 h
[29] = 6-lauroyl-Oxycodone, pH 9 buffer (75% EtOH), 8 h
[30] = 6-lauroyl-Oxycodone, pH 11 buffer (75% EtOH), 0 h
[31] = 6-lauroyl-Oxycodone, pH 11 buffer (75% EtOH), 0.5 h
[32] = 6-lauroyl-Oxycodone, pH 11 buffer (75% EtOH), 4 h
[33] = 6-lauroyl-Oxycodone, pH 11 buffer (75% EtOH), 8 h

## COc1ccc2c3c1OC1C(OC(C)=O)=CC[C@@]4(OC(C)=O)[C@@H](C2)N(C)CC[C@]314 (some centres unmarked) [6,14-Diacetyl oxycodone, 6,14-bis-acetyl Oxycodone]
[1]; mixture in simulated intestinal fluid (37° C., pH 6.8, pancreatine)
  hydrolysis products (in words): hydrolyzes to create additional 6-acetyl oxycodone and 14-acetyl oxycodone

## COCCOCCOCC(=O)OC1=CCC2(OC(=O)COCCOCCOC)[C@H]3Cc4ccc(OC)c5c4[C@@]2(CCN3C)C1O5 (some centres unmarked) [6,14-bis-PEG oxycodone]
[1]; 0 h
  6,14-bis-PEG-Oxy (%): 86%
[1]; 0.17 h
  6,14-bis-PEG-Oxy (%): 0%
[2]; 0 h
  6,14-bis-PEG-Oxy (%): 86%
[2]; 0.17 h
  6,14-bis-PEG-Oxy (%): 0.71%
[2]; 1 h
  6,14-bis-PEG-Oxy (%): 0%
μ-opioid receptor [3]
  EC50: 520 nM
  functional profile at μ-opioid receptor (in words): μ-receptor agonist as effective as oxycodone
μ-opioid receptor [3]; Conc. 3 μM, criteria ≥± 50%
  % Response Agonist: 85%
μ-opioid receptor [4]
  Ki: 52 nM
  Ki compared with that of oxycodone (in words): comparable
[5]; 0 h
  6,14-bis-PEG-Oxy (%): 86%
[5]; 1 h
  6,14-bis-PEG-Oxy (%): 77.7%
[5]; 2 h
  6,14-bis-PEG-Oxy (%): 72.5%
[5]; 4 h
  6,14-bis-PEG-Oxy (%): 65.6%
[5]; 20 h
  6,14-bis-PEG-Oxy (%): 30.2%

## CCCCCCCCCCCC(=O)OC1=CC[C@@]2(OC(=O)CCCCCCCCCCC)[C@H]3Cc4ccc(OC)c5c4[C@@]2(CCN3C)C1O5 (some centres unmarked) [6,14-bis-lauroyl oxycodone]
[6]; [8]
  6,14-bis-lauroyl-Oxy (%): 99%
  Oxy (%): 0%
  mono-lauroyl-Oxy (%): 0%
[6]; [9]
  6,14-bis-lauroyl-Oxy (%): 98%
  Oxy (%): 0%
  mono-lauroyl-Oxy (%): 1%
[6]; [10]
  6,14-bis-lauroyl-Oxy (%): 98%
  Oxy (%): 0%
  mono-lauroyl-Oxy (%): 2%
[6]; [11]
  6,14-bis-lauroyl-Oxy (%): 98%
  Oxy (%): 0%
  mono-lauroyl-Oxy (%): 2%
[6]; [12]
  6,14-bis-lauroyl-Oxy (%): 98%
  Oxy (%): 0%
  mono-lauroyl-Oxy (%): 2%
[6]; [13]
  6,14-bis-lauroyl-Oxy (%): 94.3%
  Oxy (%): 0%
  mono-lauroyl-Oxy (%): 5.7%
[6]; [14]
  6,14-bis-lauroyl-Oxy (%): 99%
  Oxy (%): 0%
  mono-lauroyl-Oxy (%): 0%
[6]; [15]
  6,14-bis-lauroyl-Oxy (%): 98.7%
  Oxy (%): 0%
  mono-lauroyl-Oxy (%): 1.3%
[6]; [16]
  6,14-bis-lauroyl-Oxy (%): 98.4%
  Oxy (%): 0%
  mono-lauroyl-Oxy (%): 1.6%
[6]; [17]
  6,14-bis-lauroyl-Oxy (%): 96.2%
  Oxy (%): 0%
  mono-lauroyl-Oxy (%): 3.8%
[6]; [18]
  6,14-bis-lauroyl-Oxy (%): 93.4%
  Oxy (%): 0%
  mono-lauroyl-Oxy (%): 6.6%
[6]; [19]
  6,14-bis-lauroyl-Oxy (%): 99%
  Oxy (%): 0%
  mono-lauroyl-Oxy (%): 0%
[6]; [20]
  6,14-bis-lauroyl-Oxy (%): 83.7%
  Oxy (%): 0.5%
  mono-lauroyl-Oxy (%): 16.3%
[6]; [21]
  6,14-bis-lauroyl-Oxy (%): 63.9%
  Oxy (%): 1%
  mono-lauroyl-Oxy (%): 33.1%
[6]; [22]
  6,14-bis-lauroyl-Oxy (%): 14.7%
  Oxy (%): 2.8%
  mono-lauroyl-Oxy (%): 60.5%
[6]; [23]
  6,14-bis-lauroyl-Oxy (%): 0%
  Oxy (%): 5.4%
  mono-lauroyl-Oxy (%): 94.6%
[6]; [24]
  6,14-bis-lauroyl-Oxy (%): 0%
  Oxy (%): 10.2%
  mono-lauroyl-Oxy (%): 89.8%
[7]; 0 h
  6,14-bis-lauroyl-Oxy (%): 99%
  Oxy (%): 0%
  mono-lauroyl-Oxy (%): 0%
[7]; 0.5 h
  6,14-bis-lauroyl-Oxy (%): 97%
  Oxy (%): 0%
  mono-lauroyl-Oxy (%): 2.9%
[7]; 2 h
  6,14-bis-lauroyl-Oxy (%): 95.1%
  Oxy (%): 0%
  mono-lauroyl-Oxy (%): 4.7%
[7]; 4 h
  6,14-bis-lauroyl-Oxy (%): 94%
  Oxy (%): 0%
  mono-lauroyl-Oxy (%): 6%
[7]; 8 h
  6,14-bis-lauroyl-Oxy (%): 91.4%
  Oxy (%): 0%
  mono-lauroyl-Oxy (%): 8.6%
[7]; 24 h
  6,14-bis-lauroyl-Oxy (%): 77.1%
  Oxy (%): 0%
  mono-lauroyl-Oxy (%): 22.9%
μ-opioid receptor [4]
  Ki: 22200 nM
  Ki compared with that of oxycodone (in words): significantly higher
  binding to μ-opioid receptor (in words): does not bind to μ-opioid receptor well

## COCCOCCOCC(=O)OC1=CC[C@@]2(O)[C@H]3Cc4ccc(OC)c5c4[C@@]2(CCN3C)C1O5 (some centres unmarked) [6-PEG oxycodone]
μ-opioid receptor [3]
  EC50: 390 nM
μ-opioid receptor [3]; Conc. 3 μM, criteria ≥± 50%
  % Response Agonist: 90%
μ-opioid receptor [4]
  Ki: 22 nM
  Ki compared with that of oxycodone (in words): comparable

## COc1ccc2c3c1OC1C(OC(C)=O)=CCC4[C@@H](C2)N(C)CC[C@]314 (some centres unmarked) [6-acetyl hydrocodone]
[2]; human blood serum (37° C.)
  hydrolysis in human blood serum (in words): hydrolyzed quickly
[2]; human blood serum (37° C.), 30 minutes
  % hydrolyzed to hydrocodone: 99%
[2]; human blood serum (37° C.), five minutes
  % hydrolyzed to hydrocodone: 70%

## CCCCCCCCCCCC(=O)OC1=CC[C@@]2(O)[C@H]3Cc4ccc(OC)c5c4[C@@]2(CCN3C)C1O5 (some centres unmarked) [6-lauroyl oxycodone]
[1]; 0 h
  6-lauroyl-Oxy (%): 99%
[1]; 0.17 h
  6-lauroyl-Oxy (%): 56.9%
[1]; 0.5 h
  6-lauroyl-Oxy (%): 54.8%
[1]; 1 h
  6-lauroyl-Oxy (%): 52.6%
[1]; 2 h
  6-lauroyl-Oxy (%): 50.8%
[1]; with additional fresh intestinal fluid 30 min
  6-lauroyl-Oxy (%): 18.6%
[6]; [25]
  6-lauroyl-Oxy (%): 99%
  Oxy (%): 0%
[6]; [26]
  6-lauroyl-Oxy (%): 98%
  Oxy (%): 1%
[6]; [27]
  6-lauroyl-Oxy (%): 98%
  Oxy (%): 1%
[6]; [28]
  6-lauroyl-Oxy (%): 98%
  Oxy (%): 1%
[6]; [29]
  6-lauroyl-Oxy (%): 98%
  Oxy (%): 1%
[6]; [30]
  6-lauroyl-Oxy (%): 99%
  Oxy (%): 0%
[6]; [31]
  6-lauroyl-Oxy (%): 24.5%
  Oxy (%): 75.5%
[6]; [32]
  6-lauroyl-Oxy (%): 7.2%
  Oxy (%): 92.8%
[6]; [33]
  6-lauroyl-Oxy (%): 6.2%
  Oxy (%): 93.8%
μ-opioid receptor [3]
  EC50: 990 nM
μ-opioid receptor [3]; Conc. 3 μM, criteria ≥± 50%
  % Response Agonist: 52%
μ-opioid receptor [4]
  Ki: 96 nM
  Ki compared with that of oxycodone (in words): comparable

## COc1ccc2c3c1OC1C(=O)CCC4(OC(C)=O)C(C2)N(C)CCC314 (centres unmarked) [14-acetyl oxycodone]
μ-opioid receptor [3]; Conc. 3 μM, criteria ≥± 50%
  % Response Agonist: 79%
μ-opioid receptor [3]
  functional profile at μ-opioid receptor (in words): μ-receptor agonist as effective as oxycodone

## CCCCCCCCCCCC(=O)O[C@@]12CCC(=O)C3Oc4c(OC)ccc5c4[C@@]31CCN(C)[C@@H]2C5 (some centres unmarked) [14-lauroyl oxycodone]
μ-opioid receptor [3]; Conc. 100 μM, criteria ≥± 50%
  % Response Agonist: 56%
  % Response Antagonist: 56%
μ-opioid receptor [3]
  functional profile at μ-opioid receptor (in words): partial agonist and a partial antagonist
